# Results taken from PMC9871744 (Cellular and Molecular Gastroenterology and Hepatology, 2022).
# “And” between values parts separate entries of the source, which are not always exact repeats. Equal values may be shown once.
# Experiments:
# human fungiform TBC = experiment: Ca2+ signaling in human fungiform TBC; assay type: cell-based
# mouse fungiform TBC = experiment: Ca2+ signaling in mouse fungiform TBC; assay type: cell-based; settings: LA at 20 μmol/L
# [1] = test system: chorda tympani (CT) nerve; experiment: Chorda tympani; assay type: in vivo; settings: lingual application in mice; 1, 2, and 4 mmol/L; normalized to NH4Cl 100 mmol/L
# C57Bl/6 male mice = experiment: Two-bottle preference and licking tests; assay type: in vivo; settings: 50 μmol/L in 0.3% xanthan gum, 12 hours
# C57BL/6J male mice = experiment: Diet-induced obesity; assay type: in vivo
# [2] = molecular target: T1, human estrogen receptor alpha (hERα) (Homo sapiens, UniProt P03372); experiment: Estrogen receptor transcriptional activation and inhibition assays; assay type: cell-based
# T1 sequence (P03372 1-595): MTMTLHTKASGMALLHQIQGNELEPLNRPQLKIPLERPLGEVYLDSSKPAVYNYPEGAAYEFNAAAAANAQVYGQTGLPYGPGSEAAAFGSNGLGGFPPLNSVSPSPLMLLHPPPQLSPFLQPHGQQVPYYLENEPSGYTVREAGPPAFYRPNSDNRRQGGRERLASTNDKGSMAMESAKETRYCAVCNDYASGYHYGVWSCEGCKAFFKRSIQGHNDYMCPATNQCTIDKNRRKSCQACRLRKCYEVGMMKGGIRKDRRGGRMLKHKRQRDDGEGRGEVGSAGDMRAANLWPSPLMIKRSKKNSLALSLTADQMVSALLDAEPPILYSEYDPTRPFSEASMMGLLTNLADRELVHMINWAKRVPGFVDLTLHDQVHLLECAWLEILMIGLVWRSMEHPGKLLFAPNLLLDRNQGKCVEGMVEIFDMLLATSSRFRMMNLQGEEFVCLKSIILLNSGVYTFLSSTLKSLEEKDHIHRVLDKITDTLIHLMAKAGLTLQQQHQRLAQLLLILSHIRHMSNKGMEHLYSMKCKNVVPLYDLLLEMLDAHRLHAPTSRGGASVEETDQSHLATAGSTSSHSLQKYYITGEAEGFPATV
# [3] = test system: human androgen receptor (hAR); experiment: Androgen receptor transcriptional activation and inhibition assays; assay type: cell-based
# Hela-9903 cells = experiment: Cytotoxicity in the estrogen receptor reporter cells; assay type: cell-based
# MDA-kb2 cells = experiment: Cytotoxicity in the androgen receptor reporter cells; assay type: cell-based
# female Wistar rats = experiment: Toxicity / median lethal dose test, OECD guidelines 425; assay type: in vivo
# [4] = Pharmacokinetics and detection in blood by LC-MS; assay type: in vivo, mice
# Cytotoxicity evaluation = settings: human, Cytotoxicity (%); for cytotoxicity at 0.05 mmol/L: 0.050 mmol/L; for cytotoxicity at 0.1 mmol/L: 0.100 mmol/L
# HepG2 cells = experiment: Cytotoxicity evaluation
# [5] = test system: S typhimurium tester strains TA98, TA100, TA1535, and TA1537 and E coli tester strain WP2uvrA(pKM101); settings: all doses with and without S9
# [6] = rats, single oral 2000 mg/kg, means ± SEM (n = 5)
# [7] = bicompartmental model (Monolix), mice i.v.
# [8] = extended treatment in the absence of S9 mix, 0.0065 mmol/L
# [9] = extended treatment in the absence of S9 mix, 0.010 mmol/L
# [10] = extended treatment in the absence of S9 mix, 0.020 mmol/L
# [11] = extended treatment in the absence of S9 mix, 0.030 mmol/L
# [12] = extended treatment in the absence of S9 mix, 0.040 mmol/L
# [13] = short treatment in absence of S9 mix
# [14] = short treatment in the presence of S9 mix
# [15] = short treatment in absence of S9 mix, 0.025 mmol/L
# [16] = short treatment in absence of S9 mix, 0.050 mmol/L
# [17] = short treatment in absence of S9 mix, 0.100 mmol/L
# [18] = short treatment in absence of S9 mix, 0.25 mmol/L
# [19] = short treatment in the presence of S9 mix, 0.025 mmol/L
# [20] = short treatment in the presence of S9 mix, 0.050 mmol/L
# [21] = short treatment in the presence of S9 mix, 0.100 mmol/L
# [22] = short treatment in the presence of S9 mix, 0.25 mmol/L
smiles,measurement,setting,value
"CCCCC/C=C\C/C=C\CCCCCCCCP(=O)(OCC)OCC [NKS-3, diethyl (9Z,12Z)-octadeca-9,12-dien-1-ylphosphonate]",Ca2+ signaling compared with a dietary long-chain fatty acid,human fungiform TBC,higher
same,"increase in intracellular free Ca2+ concentrations, [Ca2+]i","human fungiform TBC; NKS-3 50 μmol/L, NKS-5 25 μmol/L",induced a rapid increase
same,Ca2+ signaling compared with a dietary long-chain fatty acid,mouse fungiform TBC,higher
same,"CT nerve responses compared with dietary LCFAs (LA, OA)",[1],higher
same,preference in 2-bottle paradigm versus control solution,C57Bl/6 male mice,significant preference
same,"CD36 (reduced) and GPR120 (high) protein expression in TBC, Western blots","C57BL/6J male mice; HFD animals, FTA intake 16 weeks",reversed this trend
same,locomotor activity,C57BL/6J male mice; HFD mice,increased
same,LA-induced decreases in [Ca2+]i in TBC from obese mice,C57BL/6J male mice; HFD mice given FTA 16 weeks,reversed
same,daily energy expenditure (indirect calorimetry),C57BL/6J male mice; HFD-fed mice,significantly increased
same,leptin mRNA expression in adipose tissues,C57BL/6J male mice; HFD-fed mice,failed to significantly decrease
same,fecal microbiota: bacterial family increased,"C57BL/6J male mice; HFD-fed mice, 16S rRNA sequencing, week 26",Marinifilaceae
same,"adipose tissue mRNA encoding leptin, CD36, TNF-α, and IL6","C57BL/6J male mice; HFD-fed mice, epididymal adipose tissue",down-regulated
same,crown-like structures of adipocytes,"C57BL/6J male mice; obese animals, histology",decreased
same,"release of GLP-1, CCK-1, and PYY into blood circulation","C57BL/6J male mice; obese mice, end of week 26",induced the release
same,estrogenic or antiestrogenic potential (conclusion),[2],did not exert an estrogenic or antiestrogenic potential
same,androgenic or antiandrogenic property (conclusion),[3],did not possess androgenic or antiandrogenic property
same,cytotoxic concentrations,Hela-9903 cells; Hela-9903 cells,≥ 10 µmol/L
same,highest non-cytotoxic concentration,Hela-9903 cells; estrogen receptor assays,5 µmol/L
same,cytotoxic concentrations,MDA-kb2 cells; MDA-kb2 cells,≥ 10 µmol/L
same,highest non-cytotoxic concentration,MDA-kb2 cells; androgen receptor assays,5 µmol/L
same,weight of kidneys,female Wistar rats; [6],1.82 ± 0.193 g
same,weight of liver,female Wistar rats; [6],8.12 ± 0.188 g
same,weight of spleen,female Wistar rats; [6],0.96 ± 0.12 g
same,toxic effect on liver enzymes and blood lipid parameters,"female Wistar rats; rats, single oral limit dose 2000 mg/kg body weight, 2 weeks",No toxic effect
same,"evidence of toxicity, preliminary study","female Wistar rats; single animal, oral dosages of 5000 mg/kg body weight",no evidence of toxicity
same,"Intercompartmental clearance, population pharmacokinetic estimation mean",[4]; [7],0.739 L/h
same,"Proportional residual error, population pharmacokinetic model",[4]; [7],1.89%
same,"Volume of central compartment, population pharmacokinetic estimation mean",[4]; [7],0.0634 L
same,"Volume of peripheral compartment, population pharmacokinetic estimation mean",[4]; [7],2.24 L
same,detection in blood circulation after intravenous injections (LC-MS),[4]; mice,could be detected
same,AUClast as share of the total exposure,"[4]; mice, intravenous 10 mg/kg",about 80%
same,AUClast,"[4]; mice, intravenous 10 mg/kg body weight, NCA (AUC0–6 h), 10 mg/kg",59.94 ± 12.09 mg/kg/Lxh
same,Tmax,"[4]; mouse, plasma, iv, 10 mg/kg",5 min
same,Vd,"[4]; mouse, plasma, iv, 10 mg/kg",1.23 ± 0.279 L/kg
same,clearance,"[4]; mouse, plasma, iv, 10 mg/kg",2.82 mL/min/kg and 3.37 mL/min
same,half-life,"[4]; mouse, plasma, iv, 10 mg/kg",240 min
same,AUC(0-t),"[4]; mouse, plasma, iv, 10 mg/kg, AUClast, mice, intravenous 10 mg/kg body weight, NCA (AUC0–6 h)",~60000 ng·h/mL
same,Cmax,"[4]; mouse, plasma, iv, 10 mg/kg, mice, dose of 10 mg/kg body weight",~48000 ng/mL
same,Cmax,"[4]; mouse, plasma, iv, 10 mg/kg, mice, intravenous 10 mg/kg body weight, NCA, means ± SEM, five mice",46700 ± 15300 ng/mL
same,cytotoxicity at 0.0065 mmol/L,Cytotoxicity evaluation; [8],24.9%
same,cytotoxicity at 0.01 mmol/L,Cytotoxicity evaluation; [9],35.3%
same,cytotoxicity at 0.02 mmol/L,Cytotoxicity evaluation; [10],49.5%
same,cytotoxicity at 0.03 mmol/L,Cytotoxicity evaluation; [11],72.8%
same,cytotoxicity at 0.04 mmol/L,Cytotoxicity evaluation; [12],73.7%
same,cytotoxicity at 0.025 mmol/L,Cytotoxicity evaluation; [13],-9.99%
same,cytotoxicity at 0.05 mmol/L,Cytotoxicity evaluation; [13],14.7%
same,cytotoxicity at 0.1 mmol/L,Cytotoxicity evaluation; [13],56.2%
same,cytotoxicity at 0.25 mmol/L,Cytotoxicity evaluation; [13],65.5%
same,cytotoxicity at 0.025 mmol/L,Cytotoxicity evaluation; [14],-3.6%
same,cytotoxicity at 0.05 mmol/L,Cytotoxicity evaluation; [14],-5.03%
same,cytotoxicity at 0.1 mmol/L,Cytotoxicity evaluation; [14],19.4%
same,cytotoxicity at 0.25 mmol/L,Cytotoxicity evaluation; [14],73%
same,concentrations with evidence of toxicity,HepG2 cells; extended treatment in the absence of S9 mix,≥ 0.03 mmol/L
same,CBPI,HepG2 cells; [8],1.64 and 1.74
same,Mean CBPI,HepG2 cells; [8],1.69
same,CBPI,HepG2 cells; [9],1.57 and 1.62
same,Mean CBPI,HepG2 cells; [9],1.59
same,CBPI,HepG2 cells; [10],1.47 and 1.46
same,Mean CBPI,HepG2 cells; [10],1.46
same,CBPI,HepG2 cells; [11],1.25
same,Mean CBPI,HepG2 cells; [11],1.25
same,CBPI,HepG2 cells; [12],1.24
same,Mean CBPI,HepG2 cells; [12],1.24
same,Cytotoxicity (%),"HepG2 cells; extended treatment in the absence of S9 mix, 0.062 mmol/L",Cell death
same,Cytotoxicity (%),"HepG2 cells; extended treatment in the absence of S9 mix, 0.125 mmol/L",Cell death
same,CBPI,HepG2 cells; [15],1.83 and 1.84
same,Mean CBPI,HepG2 cells; [15],1.84
same,CBPI,HepG2 cells; [16],1.64 and 1.66
same,Mean CBPI,HepG2 cells; [16],1.65
same,CBPI,HepG2 cells; [17],1.28 and 1.38
same,Mean CBPI,HepG2 cells; [17],1.33
same,CBPI,HepG2 cells; [18],1.28
same,Mean CBPI,HepG2 cells; [18],1.26
same,Cytotoxicity (%),"HepG2 cells; short treatment in absence of S9 mix, 0.40 mmol/L",Cell death
same,Cytotoxicity (%),"HepG2 cells; short treatment in absence of S9 mix, 0.50 mmol/L",Cell death
same,Cytotoxicity (%),"HepG2 cells; short treatment in absence of S9 mix, 1.00 mmol/L",Cell death
same,Cytotoxicity (%),"HepG2 cells; short treatment in absence of S9 mix, 5.00 mmol/L",Cell death
same,Cytotoxicity (%),"HepG2 cells; short treatment in absence of S9 mix, 10.00 mmol/L",Cell death
same,concentrations with evidence of toxicity,HepG2 cells; short treatment in the absence of S9 mix,≥ 0.25 mmol/L
same,concentrations with evidence of toxicity,HepG2 cells; [14],≥ 0.25 mmol/L
same,CBPI,HepG2 cells; [19],1.83 and 1.84
same,Mean CBPI,HepG2 cells; [19],1.83
same,CBPI,HepG2 cells; [20],1.86 and 1.82
same,Mean CBPI,HepG2 cells; [20],1.84
same,CBPI,HepG2 cells; [21],1.63 and 1.66
same,Mean CBPI,HepG2 cells; [21],1.65
same,CBPI,HepG2 cells; [22],1.20 and 1.23
same,Mean CBPI,HepG2 cells; [22],1.22
same,Cytotoxicity (%),"HepG2 cells; short treatment in the presence of S9 mix, 0.40 mmol/L",Cell death
same,Cytotoxicity (%),"HepG2 cells; short treatment in the presence of S9 mix, 0.50 mmol/L",Cell death
same,Cytotoxicity (%),"HepG2 cells; short treatment in the presence of S9 mix, 1.00 mmol/L",Cell death
same,Cytotoxicity (%),"HepG2 cells; short treatment in the presence of S9 mix, 5.00 mmol/L",Cell death
same,Cytotoxicity (%),"HepG2 cells; short treatment in the presence of S9 mix, 10.00 mmol/L",Cell death
same,toxicity in the tester strains,[5],No toxicity
